Experimental data as given in patent US20250304620A1, “ANTIMICROBIAL PEPTIDE AND APPLICATION THEREOF” (priority 2023, published 2025).
Converted amounts (≈) assume the structure as drawn. Marks after values point to notes of the source that are not given here. Non-standard residues stand in square brackets, D forms with d. Residues, ends and D or L forms follow the SMILES beside them. d2Nal = N[C@H](Cc1ccc2ccccc2c1)C(=O)O

Assays:
[1] = system: Staphylococcus aureus (NRS 384); experiment: microbe, parasite or virus in culture; assay type: cell-based; settings: NRS 384
Outline: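 CLSI broth microdilution with serial twofold dilutions gave MICs against S. aureus NRS 384, with 5 parallel replicates. Levofloxacin and the AMP Cbf-K16 served as positive controls.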

[2] = system: Shigella flexneri ATCC 12022; experiment: MIC against clinically common bacterial strain; assay type: cell-based
Outline: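 Read-out is MIC, from a CLSI-conformant twofold microdilution series, done in quintuplicate in parallel.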

rabbit red blood cells = assay type: cell-based; settings: red cells of rabbit, 1 h
[3] = system: Escherichia coli ATCC 25922; experiment: Oral formulations on mice with systemic bacterial infection; assay type: in vivo, ICR mice; settings: three times a day for 7 days; for Number of mice that died on each day after infection: day 4 / Number of mice that died on each day after infection: day 5 / Number of mice that died on each day after infection: day 6 / Number of mice that died on each day after infection: day 7 / Number of mice that died on each day after infection: day 8 / Average survival times (Days): n = 10; for Average survival times (Days): observed for 14 d; for survival time of mice infected with Escherichia coli: gavage, observed 14 d
Outline: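 ICR mice of both sexes, 10 per group, infected i.p. with 0.2 mL E. coli ATCC 25922 at 1×10^7 CFU/mL. Compounds gavaged by body weight immediately after infection, three times daily for 7 days; deaths and survival time recorded over 14 d observation.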

| Structure (SMILES) | MIC against Staphylococcus aureus (NRS 384) [1] [µg/mL] | MIC Shigella flexneri ATCC 12022 [2] [µg/mL] | MHC (minimum hemolytic concentration, lowest concentration causing 10% hemolysis) (rabbit red blood cells) [µg/mL] | Number of mice that died on each day after infection: day 4 ([3]; 0.2 mg/kg gavage) [Mouse] | Number of mice that died on each day after infection: day 5 ([3]; 0.2 mg/kg gavage) [Mouse] | Number of mice that died on each day after infection: day 6 ([3]; 0.2 mg/kg gavage) [Mouse] | Number of mice that died on each day after infection: day 7 ([3]; 0.2 mg/kg gavage) [Mouse] | Number of mice that died on each day after infection: day 8 ([3]; 0.2 mg/kg gavage) [Mouse] | Average survival times (Days) ([3]; 0.2 mg/kg gavage) | Number of mice that died on each day after infection: day 4 ([3]; 1 mg/kg gavage) [Mouse] | Number of mice that died on each day after infection: day 5 ([3]; 1 mg/kg gavage) [Mouse] | Number of mice that died on each day after infection: day 6 ([3]; 1 mg/kg gavage) [Mouse] | Number of mice that died on each day after infection: day 7 ([3]; 1 mg/kg gavage) [Mouse] | Number of mice that died on each day after infection: day 8 ([3]; 1 mg/kg gavage) [Mouse] | Average survival times (Days) ([3]; 1 mg/kg gavage) | Number of mice that died on each day after infection: day 4 ([3]; 5 mg/kg gavage) [Mouse] | Number of mice that died on each day after infection: day 5 ([3]; 5 mg/kg gavage) [Mouse] | Number of mice that died on each day after infection: day 6 ([3]; 5 mg/kg gavage) [Mouse] | Number of mice that died on each day after infection: day 7 ([3]; 5 mg/kg gavage) [Mouse] | Number of mice that died on each day after infection: day 8 ([3]; 5 mg/kg gavage) [Mouse] | also measured |
| --- | --- | --- | --- | --- | --- | --- | --- | --- | --- | --- | --- | --- | --- | --- | --- | --- | --- | --- | --- | --- | --- |
| CC(=O)N[C@H](CCCNC(=N)N)C(=O)N[C@H](CCCCN)C(=O)N[C@H](CC(C)C)C(=O)N[C@H](CC(C)C)C(=O)N[C@H](Cc1ccc2ccccc2c1)C(=O)N[C@H](CCCCN)C(=O)N[C@H](CC(C)C)C(=O)N[C@H](CCCCN)C(=O)N[C@H](Cc1ccc2ccccc2c1)C(=O)N[C@H](CCCCN)C(=O)N[C@H](CCCNC(=N)N)C(N)=O [LV-18] (Ac-[dR][dK][dL][dL][d2Nal][dK][dL][dK][d2Nal][dK][dR]-NH2) | 1 (≈ 0.618 µM) | 8 (≈ 4.94 µM) | >1000 | 0 | 1 | 2 | 1 | 0 | 10.8*** Days | 0 | 1 | 0 | 1 | 0 | 12.4**** Days | 0 | 1 | 2 | 0 | 0 | Average survival times (Days) ([3]; 5 mg/kg gavage): 11.5**** Days; survival time of mice infected with Escherichia coli [3]: superior to those of the Levofloxacin group |
| CC(=O)N[C@H](CCCCN)C(=O)N[C@H](CCCCN)C(=O)N[C@H](CC(C)C)C(=O)N[C@H](CC(C)C)C(=O)N[C@H](Cc1ccc2ccccc2c1)C(=O)N[C@H](CCCNC(=N)N)C(=O)N[C@H](CC(C)C)C(=O)N[C@H](CCCCN)C(=O)N[C@H](Cc1ccc2ccccc2c1)C(=O)N[C@H](CCCNC(=N)N)C(=O)N[C@H](CCCCN)C(N)=O [LV-19] (Ac-[dK][dK][dL][dL][d2Nal][dR][dL][dK][d2Nal][dR][dK]-NH2) | 1 (≈ 0.618 µM) | 4 (≈ 2.47 µM) | >1000 | 0 | 2 | 1 | 2 | 1 | 9.4** Days | 0 | 1 | 1 | 1 | 0 | 11.6**** Days | 0 | 2 | 1 | 1 | 0 | Average survival times (Days) ([3]; 5 mg/kg gavage): 10.7*** Days; survival time of mice infected with Escherichia coli [3]: superior to those of the Levofloxacin group |
| CC(=O)N[C@H](CCCNC(=N)N)C(=O)N[C@H](CCCCN)C(=O)N[C@H](CC(C)C)C(=O)N[C@H](CC(C)C)C(=O)N[C@H](Cc1ccc2ccccc2c1)C(=O)N[C@H](CCCNC(=N)N)C(=O)N[C@H](CC(C)C)C(=O)N[C@H](CCCCN)C(=O)N[C@H](Cc1ccc2ccccc2c1)C(=O)N[C@H](CCCNC(=N)N)C(=O)N[C@H](CCCCN)C(N)=O [LV-20] (Ac-[dR][dK][dL][dL][d2Nal][dR][dL][dK][d2Nal][dR][dK]-NH2) | 1 (≈ 0.607 µM) | 4 (≈ 2.43 µM) | >1000 | 1 | 1 | 2 | 2 | 0 | 9.1** Days | 1 | 1 | 0 | 1 | 0 | 11.4**** Days | 2 | 0 | 2 | 0 | 0 | Average survival times (Days) ([3]; 5 mg/kg gavage): 10.4*** Days; survival time of mice infected with Escherichia coli [3]: superior to those of the Levofloxacin group |
| CC(=O)N[C@H](CCCNC(=N)N)C(=O)N[C@H](CCCNC(=N)N)C(=O)N[C@H](CC(C)C)C(=O)N[C@H](CC(C)C)C(=O)N[C@H](Cc1ccc2ccccc2c1)C(=O)N[C@H](CCCNC(=N)N)C(=O)N[C@H](CC(C)C)C(=O)N[C@H](CCCCN)C(=O)N[C@H](Cc1ccc2ccccc2c1)C(=O)N[C@H](CCCNC(=N)N)C(=O)N[C@H](CCCCN)C(N)=O [LV-21] (Ac-[dR][dR][dL][dL][d2Nal][dR][dL][dK][d2Nal][dR][dK]-NH2) | 1 (≈ 0.597 µM) | 2 (≈ 1.19 µM) | >1000 | – | – | – | – | – | – | 1 | 2 | 1 | 0 | 1 | 9.8** Days | – | – | – | – | – | – |
| CC(=O)N[C@H](CCCNC(=N)N)C(=O)N[C@H](CCCCN)C(=O)N[C@H](CC(C)C)C(=O)N[C@H](CC(C)C)C(=O)N[C@H](Cc1ccc2ccccc2c1)C(=O)N[C@H](CCCNC(=N)N)C(=O)N[C@H](CC(C)C)C(=O)N[C@H](CCCCN)C(=O)N[C@H](Cc1ccc2ccccc2c1)C(=O)N[C@H](CCCNC(=N)N)C(=O)N[C@H](CCCNC(=N)N)C(N)=O [LV-22] (Ac-[dR][dK][dL][dL][d2Nal][dR][dL][dK][d2Nal][dR][dR]-NH2) | 1 (≈ 0.597 µM) | 4 (≈ 2.39 µM) | >1000 | – | – | – | – | – | – | 0 | 2 | 1 | 1 | 2 | 9.5** Days | – | – | – | – | – | – |
| CC(=O)N[C@H](CCCCN)C(=O)N[C@H](CCCNC(=N)N)C(=O)N[C@H](CC(C)C)C(=O)N[C@H](CC(C)C)C(=O)N[C@H](Cc1ccc2ccccc2c1)C(=O)N[C@H](CCCCN)C(=O)N[C@H](CC(C)C)C(=O)N[C@H](CCCCN)C(=O)N[C@H](Cc1ccc2ccccc2c1)C(=O)N[C@H](CCCCN)C(=O)N[C@H](CCCNC(=N)N)C(N)=O [LV-23] (Ac-[dK][dR][dL][dL][d2Nal][dK][dL][dK][d2Nal][dK][dR]-NH2) | 1 (≈ 0.618 µM) | 2 (≈ 1.24 µM) | >1000 | – | – | – | – | – | – | 2 | 1 | 1 | 0 | 1 | 9.7** Days | – | – | – | – | – | – |
